Like-named read-outs stand apart in the source and are kept apart here. Some results are limits rather than exact numbers.

In assay [1] the test system is p3TPLux TGFβ-responsive reporter in 6F mink lung cells. The assay can be described thus: luciferase assay, stably transfected p3TPLux. Format: cell-based. The conditions noted are these: substance alone. How it is done: FIG. 19 graphs the dose-response of transcriptional activation of compounds 1a and 2 in the presence (*) or absence (•) of 400 pM TGFβ1. 20,000 6F mink lung cells ( ) were seeded in 384 well plates, allowed to attach for 16 hours in 10% mink medium, and were treated with the indicated concentrations of 1a or 2.
We screened more than 16,000 chemical compounds to identify those that specifically activated expression of a reporter gene (luciferase) under the control of TGFβ-responsive elements in stably transfected mammalian cells (mink lung epithelial cells). […] Given the structural similarity of compounds 1a-c, we expected that all three were operating through a common mechanism. We therefore continued testing on only one, compound 1a, as representative of the group.

The test system of assay [2] is p3TPLux in 6F mink lung cells. Nature of the assay: antagonism of p3TPLux activation in 6F mink lung cells. Format: cell-based. The conditions noted are these: for suppression of reporter activation by copper: TGFβ-responsive reporter; for suppression of reporter activation by 1a / suppression of reporter activation by 2 / suppression of reporter activation by TGFβ: TGFβ-responsive reporter in mink lung epithelial cells. How it is done:
LUCIFERASE ASSAYS: Our transient transfection luciferase assay was described previously by us (Stockwell et al., Chem Biol 5:385, 1998). Briefly, 100,000 Mv1Lu mink lung epithelial cells were transiently transfected in 12-well dishes with 400 ng p3TPLux or pNFkB-Lux, with or without 50 ng pFC-MEKK, in 300 μL minimal essential medium with non-essential amino acids. The DEAE-dextran/chloroquine/DMSO methods was used for transfection (Stockwell et al., Chem Biol 6:71, 1999). After cell lysis in 120 μL lysis buffer, a Beckman LS 6500 liquid scintillation counter was used in single photon mode to quantitate luminescence. For detection of luciferase activity in 6F cells (including the primary screen), 20,000 6F cells were seeded in 50 μL of 10% mink medium in each well of a white 384-well plate (Nalge Nune International; Naperville, Ill.; cat#164610) using a Multidrop 384 liquid dispenser (Lab Systems; Helsinki, Finland). After 16 hours, medium was removed using a 24 channel wand (V&P Scientific, Inc.; San Diego, Calif.; cat#VP 186L), the cells were washed with 75 μL of 0.2% mink medium (containing 0.2% FBS), and reagents were added in 40 μL of 0.2% medium. For the primary screen, reagents were added by pin transfer using 384 polypropylene pin arrays (Matrix Technologies; Hudson, N.H.). After 24 hours, the cells were cooled on ice and washed twice with 75 μL Hanks Balanced Salt Solution (HBSS; GibcoBRL; cat#24020-117). Then 20 μL lysis buffer (25 mM glycylglycine (Sigma; cat#E-0396), 1% Triton X-100 (Sigma; cat#T-9284), 1 mM dithiothreitol (DTT; Sigma; cat#D-5545), 1 mM phenylmethylsulfonyl fluoride (PMSF; Sigma; cat#P-7626)) was added to each well with a Multidrop. After incubating the cells for five minutes on ice, 20 μL of ATP/luciferin solution was added (25 mM glycylglycine pH 7.8, 15 mM MgSO4, 4 mM EGTA, 6.25 mM K2HPO4 (Sigma; cat#P5504) pH 7.8, 5 mM DTT, 75 μM D-luciferin (Sigma, cat# L-9504, 2 mM ATP (Sigma; cat#A-7699)). Light output was immediately measured with an Analyst 384-well platereader (LJL), with 0.5 second counting time per well.

A short description of assay [3]: UV spectral shift binding assay with 2. To be noted: metal ion concentration inducing a 50% shift in λmax of UV shoulder of 2 from 297 nm to 310 nm ([2] = 20 μM); read-out: EC50UV 2. As to the method:
(§1) UV SPECTRAL SHIFT BINDING ASSAY: A quartz cuvette with 1 mL deionized, distilled water was used as a blank on a Cary 1E UV-visible spectrophotomer. 1a or 2 was diluted to a final concentration of 15 μM or 20 μM, respectively, and the UV spectrum from 240 nm to 320 nm was measured. […] Upon addition of certain transition metals (Table 1), this peak shifted such that the new λmax was 273 nm and 310 nm, for 1a and 2, respectively. […] For the calculation of correlation coefficients, all values less than 7.5 μM were taken to be 7.5 μM, all values greater than 1000 μM were taken to be 1000 μm and all values less than 10 μM were taken to be 10 μM.

A short description of assay [4]: UV spectral shift binding assay with 1a. The conditions noted are these: metal ion concentration inducing a 50% shift in λmax of UV shoulder of 1a ([1a] = 15 μM) from 292 nm to 273 nm; estimate of dissociation constant; read-out: EC50UV 1a. As to the method:
as §1

The mark [5] stands for this setting: metal ion concentration inhibiting 50% of the activation of p3TPLux by 1a ([1a] = 3 μM) in 6F mink lung cells, read-out: EC50SU 1a.
Setting [6] is: metal ion concentration inhibiting 50% of the activation of p3TPLux by 2 ([2] = 64 μM) in 6F mink lung cells, read-out: EC50Su 2.

For the molecule `Oc1cccc2cccnc12` [8-hydroxyquinoline, 8-quinolinol], the “activation of the TGFβ-responsive reporter gene” value in assay [1] is recorded as “did not activate our reporter”.
`CC(C)(C#N)N=NC(C)(C)C#N` [AIBN, 2,2′-azobis (2-methylpropinonitrile)]: in assay [2], the “alteration of the effect of 1a, 2, or copper on the reporter” value is “neither agent altered the effect of 1a, 2, or copper”.
`[Cl][Al]([Cl])[Cl]` [Al^3+, A1C13]: the EC50 was 200 µM in assay [3], 30 µM in assay [4], 1 µM in assay [2] (setting [5]) and greater than 300 µM in assay [2] (setting [6]). Moreover, the “suppression of reporter activation by copper” value (shortened to “suppression … by copper”) in assay [2] is “did not”. Besides, the “suppression of reporter activation by 1a” value in assay [2] is recorded as “suppressed transcriptional activation by 1a”. The “suppression of reporter activation by 2” value in assay [2] is recorded as “no effect on activation by 2 or TGFβ”. In addition, in assay [2], the “suppression of reporter activation by TGFβ” value (“suppression … by TGFβ” for short) is recorded as “no effect on activation by 2 or TGFβ”.
On to `CC(=O)[O-].CC(=O)[O-].[Ba+2]` [Ba^2+, Ba(OAc)2], for which the EC50 in assay [3], in assay [4], in assay [2] (setting [5]) and in assay [2] (setting [6]) was greater than 1000 µM each time.
In the case of `[Ca+2].[Cl-].[Cl-]` [Ca^2+, CaCl2.2H2O], the EC50 in assay [3], in assay [4], in assay [2] (setting [5]) and in assay [2] (setting [6]) was greater than 1000 µM throughout.
As for `O.O.O.O.O.O.[Cl-].[Cl-].[Co+2]` [Co^2+, CoCl2.6H2O], in assay [2], the “suppression … by copper” value is “did not”, the “suppression of reporter activation by 1a” value was “completely suppressed”, the “suppression of reporter activation by 2” value was “completely suppressed” and the “suppression … by TGFβ” value is given as “no effect”.
For the molecule `[Cl-].[Cl-].[Co+2]` [Co^2+, CoCl2.6H2O], the EC50 in assay [3] is 50 µM; in assay [4], 100 µM; in assay [2] (setting [5]), 10 µM; in assay [2] (setting [6]), 30 µM.
On to `OO` [Compound H2O2, H2O2], for which the “alteration of the effect of 1a, 2, or copper on the reporter” value in assay [2] is recorded as “neither agent altered the effect of 1a, 2, or copper”.
For the molecule `[Cl][Fe]([Cl])[Cl]` [Fe^3+, FeCl3], the EC50 in assay [3] was less than 10 µM. In assay [4], the EC50 was less than 7.5 µM. For the same molecule, in assay [2], the “suppression … by copper” value is on record as “did not”, the “suppression of reporter activation by 1a” value is given as “completely suppressed”, the “suppression of reporter activation by 2” value is listed as “completely suppressed” and the “suppression … by TGFβ” value is “no effect”. Besides, the EC50 in assay [2] (setting [5]) is 2 µM. Besides, the EC50 in assay [2] (setting [6]) is 9 µM.
Consider `[Cl-].[K+]` [K^+, KCl], for which the EC50 in assay [3], in assay [4], in assay [2] (setting [5]) and in assay [2] (setting [6]) was greater than 1000 µM each time.
For the molecule `[Cl-].[Cl-].[Mg+2]` [Mg^2+, MgCl2], the EC50 in assay [3], in assay [4], in assay [2] (setting [5]) and in assay [2] (setting [6]) was greater than 1000 µM throughout.
In the case of `O.O.O.O.[Cl][Mn][Cl]` [Mn^2+, MnC12.4H2O], the EC50 in assay [3] is greater than 1000 µM. In assay [4], the EC50 is 80 µM. Also, in assay [2], the “suppression … by copper” value was “did not”, the “suppression of reporter activation by 1a” value is recorded as “suppressed transcriptional activation by 1a”, the “suppression of reporter activation by 2” value was “no effect on activation by 2 or TGFβ” and the “suppression … by TGFβ” value is recorded as “no effect on activation by 2 or TGFβ”. Moreover, the EC50 in assay [2] (setting [5]) was 200 µM. Also, the EC50 in assay [2] (setting [6]) is greater than 300 µM.
With `[Cl-].[Na+]` [Na^+, NaCl], the EC50 in assay [3], in assay [4], in assay [2] (setting [5]) and in assay [2] (setting [6]) was greater than 1000 µM throughout.
With `O.O.O.O.O.O.O=S(=O)([O-])[O-].[Ni+2]` [Ni^2+, NiSO4.6H2O], in assay [3], the EC50 was 500 µM. Also, the EC50 in assay [4] was 280 µM. Besides, in assay [2], the “suppression … by copper” value was “did not”, the “suppression of reporter activation by 1a” value was “suppressed transcriptional activation by 1a”, the “suppression of reporter activation by 2” value was “no effect on activation by 2 or TGFβ” and the “suppression … by TGFβ” value is “no effect on activation by 2 or TGFβ”. In assay [2] (setting [5]), the EC50 amounted to 10 µM.
For the molecule `[Cl-].[Cl-].[Zn+2]` [Zn^2+, ZnCl2], the EC50 in assay [3] was determined as 500 µM. In addition, in assay [4], the EC50 was less than 7.5 µM. Further, in assay [2], the “suppression … by copper” value is “suppressed the ability of copper to activate reporter gene expression”, the “suppression of reporter activation by 1a” value was “suppressed transcriptional activation by 1a”, the “suppression of reporter activation by 2” value is “no effect on activation by 2 or TGFβ” and the “suppression … by TGFβ” value is on record as “no effect on activation by 2 or TGFβ”. In addition, in assay [2] (setting [5]), the EC50 turned out to be 0.5 µM. Moreover, the EC50 in assay [2] (setting [6]) was greater than 300 µM.

These data come from patent US20080311589A1, “METHOD OF HIGH-THROUGHPUT SCREENING OF MOLECULES AND COMPOUNDS FOR THEIR EFFECTS ON BIOLOGICAL AND CHEMICAL PROCESSES” (priority 1999, published 2008).
